Experiment [1] deals with human GLP-1 receptor (hGLP-1R) (Homo sapiens, UniProt P43220). The experiment in a line: cAMP production (HTRF) in CHO cells expressing hGLP-1R. The class given is cell-based. Also noted: expressed in transfected cells. Particulars: for EC50: Table 6, peptides modified at position 17, cAMP in CHO hGLP-1R cells, geometric mean, read-out: hGLP-1R EC50; for % Relative Potency Ratio: Table 6, % GLP-1R activity relative to GLP-1 / % GlucR activity relative to glucagon. In outline:
(§1)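 Read-out: HTRF cAMP (anti-cAMP cryptate donor, cAMP-d2 acceptor in conjugate/lysis buffer), converted to % Delta F and fitted by 4-parameter logistic for EC50. Cell densities were 1×10^5 cells/mL (hGLP-1R) or 2×10^5 cells/mL (hGCGR). Stimulation lasted 30 min at room temperature.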

For experiment [2], the target named is human glucagon receptor (hGCGR) (Homo sapiens, UniProt P47871). The experiment in a line: cAMP production (HTRF) in CHO cells expressing hGCGR. The class given is cell-based. Also noted: expressed in transfected cells. Particulars: Table 6, peptides modified at position 17; cAMP in CHO hGCGR cells; geometric mean; read-out: hGluc-R EC50. In outline:
as §1

Starred links: 1 amine or outer side, 2 acyl side, 3 side chain; linkers in the order of their positions; H or OH if unused. Non-standard residues stand in square brackets, D forms with d. Residues, ends and D or L forms follow the SMILES beside them. Groups on a side chain read outwards from the residue. *: point of attachment. C20 diacid = O=C(O)CCCCCCCCCCCCCCCCCCC(=O)*; γGlu = O=C(O)[C@H](CCC(=O)[*:2])N[*:1]; αMeF = C[C@](N)(Cc1ccccc1)C(=O)O; AEEA = NCCOCCOCC(=O)O; Aib = CC(C)(N)C(=O)O

Chain of human GLP-1 receptor (hGLP-1R) (P43220 24-463): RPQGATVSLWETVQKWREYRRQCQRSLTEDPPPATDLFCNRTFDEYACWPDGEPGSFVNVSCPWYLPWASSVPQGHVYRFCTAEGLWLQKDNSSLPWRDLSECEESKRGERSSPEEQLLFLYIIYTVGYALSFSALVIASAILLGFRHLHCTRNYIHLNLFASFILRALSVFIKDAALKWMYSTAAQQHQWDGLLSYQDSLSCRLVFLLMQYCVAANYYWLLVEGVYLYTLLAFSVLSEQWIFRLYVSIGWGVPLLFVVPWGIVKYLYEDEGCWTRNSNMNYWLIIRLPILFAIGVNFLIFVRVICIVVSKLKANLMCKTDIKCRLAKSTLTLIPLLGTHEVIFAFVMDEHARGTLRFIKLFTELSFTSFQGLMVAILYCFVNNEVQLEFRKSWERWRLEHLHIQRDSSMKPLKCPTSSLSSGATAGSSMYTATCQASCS
Chain of human glucagon receptor (hGCGR) (P47871 26-477): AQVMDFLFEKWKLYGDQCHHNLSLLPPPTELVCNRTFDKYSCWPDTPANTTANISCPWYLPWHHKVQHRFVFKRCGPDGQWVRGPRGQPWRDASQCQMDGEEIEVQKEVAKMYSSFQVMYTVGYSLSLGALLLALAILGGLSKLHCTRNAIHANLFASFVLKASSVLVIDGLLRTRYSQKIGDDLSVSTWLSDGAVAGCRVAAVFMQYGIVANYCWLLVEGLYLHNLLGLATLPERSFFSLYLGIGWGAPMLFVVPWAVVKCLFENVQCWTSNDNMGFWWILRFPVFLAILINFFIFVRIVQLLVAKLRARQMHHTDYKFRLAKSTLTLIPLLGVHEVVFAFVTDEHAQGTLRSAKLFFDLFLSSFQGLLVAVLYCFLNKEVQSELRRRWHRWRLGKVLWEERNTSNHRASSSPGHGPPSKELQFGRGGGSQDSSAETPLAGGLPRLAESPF

Turning to `CC(C)C[C@H](NC(=O)[C@H](Cc1c[nH]c2ccccc12)NC(=O)[C@H](CCC(N)=O)NC(=O)[C@@H](NC(=O)[C@H](Cc1ccccc1)NC(=O)[C@H](CC(=O)O)NC(=O)[C@H](CCC(N)=O)NC(=O)[C@H](C)NC(=O)[C@H](CCCNC(=N)N)NC(=O)[C@H](CCCCNC(=O)COCCOCCNC(=O)COCCOCCNC(=O)CC[C@H](NC(=O)CCCCCCCCCCCCCCCCC(=O)O)C(=O)O)NC(=O)[C@@H](NC(=O)[C@H](CC(=O)O)NC(=O)[C@H](CC(C)C)NC(=O)[C@](C)(Cc1ccccc1)NC(=O)[C@H](CCCCN)NC(=O)[C@H](CO)NC(=O)[C@@H](NC(=O)[C@H](CC(=O)O)NC(=O)[C@H](CO)NC(=O)[C@@H](NC(=O)[C@H](Cc1ccccc1)NC(=O)[C@@H](NC(=O)CNC(=O)[C@H](CCC(N)=O)NC(=O)C(C)(C)NC(=O)[C@@H](N)Cc1c[nH]cn1)[C@@H](C)O)[C@@H](C)O)C(C)C)[C@@H](C)O)C(C)C)C(=O)N[C@@H](CC(C)C)C(=O)NC(C)(C)C(=O)N[C@@H](CCC(=O)O)C(=O)O` [Peptide 483], the results for the EC50 in experiment [1] and in experiment [2] were 0.178 nM and 0.169 nM, respectively. Besides, the “% Relative Potency Ratio” value in experiment [1] is 1.9.
The matching figures for `CC(C)C[C@H](NC(=O)[C@H](Cc1c[nH]c2ccccc12)NC(=O)[C@H](CCC(N)=O)NC(=O)[C@@H](NC(=O)[C@H](Cc1ccccc1)NC(=O)[C@H](CC(=O)O)NC(=O)[C@H](CCC(N)=O)NC(=O)[C@H](C)NC(=O)[C@H](CCCNC(=N)N)NC(=O)[C@H](CCCCNC(=O)COCCOCCNC(=O)COCCOCCNC(=O)CC[C@H](NC(=O)CCCCCCCCCCCCCCCCCCC(=O)O)C(=O)O)NC(=O)[C@@H](NC(=O)[C@H](CC(=O)O)NC(=O)[C@H](CC(C)C)NC(=O)[C@](C)(Cc1ccccc1)NC(=O)[C@H](CCCCN)NC(=O)[C@H](CO)NC(=O)[C@@H](NC(=O)[C@H](CC(=O)O)NC(=O)[C@H](CO)NC(=O)[C@@H](NC(=O)[C@H](Cc1ccccc1)NC(=O)[C@@H](NC(=O)CNC(=O)[C@H](CCC(N)=O)NC(=O)C(C)(C)NC(=O)[C@@H](N)Cc1c[nH]cn1)[C@@H](C)O)[C@@H](C)O)C(C)C)[C@@H](C)O)C(C)C)C(=O)N[C@@H](CC(C)C)C(=O)NC(C)(C)C(=O)N[C@@H](CCC(=O)O)C(=O)O` [Peptide 484] (H-H[Aib]QGTFTSDVSK[αMeF]LDTK([AEEA-AEEA-γGlu-C20 diacid])RAQDFVQWLL[Aib]E-OH; N-terminus assumed): 0.339 nM, 0.169 nM and 1.0.
The matching figures for `CC(C)C[C@H](NC(=O)[C@H](Cc1c[nH]c2ccccc12)NC(=O)[C@H](CCC(N)=O)NC(=O)[C@@H](NC(=O)[C@H](Cc1ccccc1)NC(=O)[C@H](CC(=O)O)NC(=O)[C@H](CCC(N)=O)NC(=O)[C@H](C)NC(=O)[C@H](CCCNC(=N)N)NC(=O)[C@H](CCCCNC(=O)COCCOCCNC(=O)COCCOCCNC(=O)CC[C@H](NC(=O)CCCCCCCCCCCCCCCCCCC(=O)O)C(=O)O)NC(=O)[C@@H](NC(=O)[C@H](CC(=O)O)NC(=O)[C@H](CC(C)C)NC(=O)[C@](C)(Cc1ccccc1)NC(=O)[C@H](CCCCN)NC(=O)[C@H](CO)NC(=O)[C@@H](NC(=O)[C@H](CC(=O)O)NC(=O)[C@H](CO)NC(=O)[C@@H](NC(=O)[C@H](Cc1ccccc1)NC(=O)[C@@H](NC(=O)CNC(=O)[C@H](CCC(N)=O)NC(=O)C(C)(C)NC(=O)[C@@H](N)Cc1c[nH]cn1)[C@@H](C)O)[C@@H](C)O)C(C)C)[C@@H](C)O)C(C)C)C(=O)N[C@@H](CC(C)C)C(=O)NC(C)(C)C(=O)N[C@@H](CCC(=O)O)C(N)=O` [Peptide 485] (H-H[Aib]QGTFTSDVSK[αMeF]LDTK([AEEA-AEEA-γGlu-C20 diacid])RAQDFVQWLL[Aib]E-NH2; N-terminus assumed): 0.219 nM, 0.0904 nM and 0.8.
